From patent US9006241B2, “Pyrimidine derivatives” (Noviga Research AB, priority 2011, dated 2015)

Test system: CCRF-CEM cancer cells - leukemia
Assay: Fluorometric Microculture Cytotoxicity Assay (FMCA), CCRF-CEM
Format: cell-based
Conditions: Homo sapiens, 72 h incubation
From the text: The Fluorometric Microculture Cytotoxicity Assay, FMCA (Larsson, R., et al.; Anticancer Res, 1989, 9, 1111-1119), is a three day non-clonogenic microplate-based cell viability assay used for measurement of the cytotoxic and/or cytostatic effect of compounds in vitro (Lindhagen, E. et al.; Nat. Protoc., 2008, 3, 1364-1369). FMCA represents a valuable method to measure cytotoxicity in a number of cell types, both cell lines and primary cells from patients (Larsson, R., et al.; Int. J. Cancer, 1992, 50, 177-185; Fridborg, H., et al.; Eur. J. Cancer, 1999. 35, 424-432; Dhar, S., et al.; Br. J. Cancer, 1996, 74, 888-896).
FMCA is based on the principle that fluorescein diacetate (FDA) is converted to the fluorescent probe fluorescein by esterases in the plasma membranes of living cells. For experiments, 96 or 384-well microplates are prepared with compounds and stored at −70° C. until use. Cells are then seeded into the drug-prepared plates and placed in an incubator for 72 h. On the last day of incubation, the plates are washed and a buffer containing FDA is added and incubated with the cells for 45 minutes. Finally the fluorescence per well is measured in a fluorometer and a Survival Index % (SI) for each compound-treated well is calculated with the equation: Compound-treated cells minus blank divided by control cells minus blank. A high SI-value indicates a large percentage of living cells and vice versa.
In subsequent experiments, compounds were tested, along with a number of approved cancer drugs (dasatinib, pazopanib, sorafenib, and sunitinib) as described above. Initially, the acute lymphoblastic leukemia cell line CCRF-CEM was used throughout. In the assay plates, medium was added to six empty wells (blank wells) and wells were filled with PBS and cell suspension and served as control wells. SI-values were then calculated for each compound-treated well as described above. All experiments were conducted twice and a new batch of plates was prepared for each experiment.
For dose-response experiments, 384-well plates were prepared as follows:
Compounds of the invention as well comparative kinase inhibitors sorafenib sunitinib, dasatinib, pazopanib and a reference compound disclosed in WO 2009/071535 (compound #107) were diluted with PBS to a concentration ten-times higher than the desired starting concentration. Then, a Biomek 2000 liquid handling system was employed to serially dilute the compounds in a deep-well 384-well plate. From this plate, assay plates containing 5 μl compound per well were prepared with the Biomek 2000. Certain compounds precipitated when diluted with PBS, and these compounds were therefore prepared in a 96-well plate manually as described above using culture medium RPMI 1640 instead of PBS.
The compounds were also tested at five concentrations, with five times serial dilution on the following cell types: CCRF-CEM, hTERT-RPE1 (normal retinal epithelial cells), hRPTEpiC (normal renal cells), and peripheral blood mononuclear cells (PBMC). Each experiment was performed three times, except for PBMC and hRPTEpiC, which were performed twice. SI-values were calculated, graphs were plotted using GraphPadPrism 5.0 (GraphPad Software Inc. La Jolla, Calif.) and IC50-values for each cell type and compound were determined from the curves.

With `CCOc1ccc2[nH]cc(CCNc3nccc(Nc4cccc5[nH]c(C)nc45)n3)c2c1` [Example 83, N^2-[2-(5-ethoxy-1H-indol-3-yl)ethyl]-N^4-(2-methyl-1H-benzimidazol-4-yl)pyrimidine-2,4-diamine] the EC50 was < 1000 nM.
In the case of `COc1ccc2[nH]cc(CCNc3nccc(Nc4cccc5c4cc(C)n5C)n3)c2c1` [Example 81, N^4-(1,2-dimethylindol-4-yl)-N^2-[2-(5-methoxy-1H-indol-3-yl)ethyl]pyrimidine-2,4-diamine], the EC50 is reported as < 100 nM.
`COc1ccc2[nH]cc(CCNc3nc(Nc4ccc5c(c4)nc(C)n5C)cc(C(N)=O)n3)c2c1` [Example 86, 6-[(1,2-dimethylbenzimidazol-5-yl)amino]-2-[2-(5-methoxy-1H-indol-3-yl)ethylamino]pyrimidine-4-carboxamide] was tested, and the EC50 was < 1000 nM.
With `COc1ccc2[nH]cc(CCNc3nccc(Nc4cccc5[nH]c(C)cc45)n3)c2c1` [Example 77, N^2-[2-(5-methoxy-1H-indol-3-yl)ethyl]-N^4-(2-methyl-1H-indol-4-yl)pyrimidine-2,4-diamine] the EC50 was < 100 nM.
Work on `COc1ccc2[nH]cc(CCNc3nccc(Nc4ccc5[nH]c(C(=O)OCCO)cc5c4)n3)c2c1` [Example 17, 2-hydroxyethyl 5-{2-[2-(5-methoxy-1H-indol-3-yl)ethylamino]pyrimidin-4-ylamino}-1H-indole-2-carboxylate] yielded an EC50 of 1400 nM.
`COc1cc(C)c2[nH]cc(CCNc3nccc(Nc4ccc5[nH]c(C)cc5c4)n3)c2c1` [Example 51, N^2-[2-(5-methoxy-7-methyl-1H-indol-3-yl)ethyl]-N^4-(2-methyl-1H-indol-5-yl)pyrimidine-2,4-diamine] showed an EC50 of 76 nM.
In the case of `COC(=O)c1cc2cc(Nc3ccnc(NCCc4c[nH]c5ccc(OC)cc45)n3)ccc2[nH]1` [Example 16, methyl 5-{2-[2-(5-methoxy-1H-indol-3-yl)ethylamino]pyrimidin-4-ylamino}-1H-indole-2-carboxylate], the EC50 is reported as 940 nM.
In the case of `COc1ccc2c(CCNc3nccc(Nc4ccc5[nH]c(C)cc5c4)n3)c[nH]c2c1` [Example 11, N^2-[2-(6-methoxy-1H-indol-3-yl)ethyl]-N^4-(2-methyl-1H-indol-5-yl)pyrimidine-2,4-diamine], the EC50 is reported as 150 nM.
For `COc1ccc2[nH]cc(CCNc3ccnc(Nc4cccc5c4ccn5C)n3)c2c1` [Example 84, N^4-[2-(5-methoxy-1H-indol-3-yl)ethyl]-N^2-(1-methylindol-4-yl)pyrimidine-2,4-diamine], the EC50 was < 100 nM.
`COc1ccc2[nH]cc(CCNc3nccc(N(C)c4ccc5[nH]c(C)cc5c4)n3)c2c1` [Example 61, N^2-[2-(5-methoxy-1H-indol-3-yl)ethyl]-N^4-methyl-N^4-(2-methyl-1H-indol-5-yl)pyrimidine-2,4-diamine] was tested, and the EC50 was 1000 to 10000 nM.
Work on `CCCOc1ccc2[nH]cc(CCNc3nccc(Nc4ccc5[nH]c(C)cc5c4)n3)c2c1` [Example 48, N^4-(2-methyl-1H-indol-5-yl)-N^2-[2-(5-propoxy-1H-indol-3-yl)ethyl]pyrimidine-2,4-diamine] yielded an EC50 of 1300 nM.
In the case of `Cn1ccc2c(Nc3ccnc(NCCc4c[nH]c5ccc(O)cc45)n3)cccc21` [Example 79, 3-[2-({4-[(1-methylindol-4-yl)amino]pyrimidin-2-yl}amino)ethyl]-1H-indol-5-ol], the EC50 is reported as < 1000 nM.
With `CCOc1ccc2[nH]cc(CCNc3nc(Nc4cccc5c4ccn5C)cc(C(N)=O)n3)c2c1` [Example 88, 2-[2-(5-ethoxy-1H-indol-3-yl)ethylamino]-6-[(1-methylindol-4-yl)amino]pyrimidine-4-carboxamide] the EC50 was < 100 nM.
In the case of `COc1ccc2[nH]cc(CCNc3nc(Nc4ccc5[nH]c(C)cc5c4)cc(C(N)=O)n3)c2c1` [Example 28, 2-[2-(5-methoxy-1H-indol-3-yl)ethylamino]-6-(2-methyl-1H-indol-5-ylamino)pyrimidine-4-carboxamide], the EC50 is reported as 58 nM.
Compound `c1ccc2c(CCNc3ccnc(Nc4ccc5cc[nH]c5c4)n3)c[nH]c2c1` [Example 24, N^4-[2-(1H-indol-3-yl)ethyl]-N^2-(1H-indol-6-yl)pyrimidine-2,4-diamine] has an EC50 of 1000 to 10000 nM.
With `CCOc1ccc2[nH]cc(CCNc3nc(C)cc(Nc4ccc5[nH]c(C)nc5c4)n3)c2c1` [Example 58, N^2-[2-(5-ethoxy-1H-indol-3-yl)ethyl]-6-methyl-N^4-(2-methyl-1H-benzo[d]imidazol-5-yl)pyrimidine-2,4-diamine] the EC50 was 170 nM.
In the case of `COc1ccc2[nH]cc(CCNc3nccc(Nc4cccc5c4ccn5C)n3)c2c1` [Example 54, N^2-[2-(5-methoxy-1H-indol-3-yl)ethyl]-N^4-(1-methyl-1H-indol-4-yl)pyrimidine-2,4-diamine], the EC50 is reported as 2.8 nM.
`COc1ccc2[nH]cc(CCNc3nc(Nc4cccc5c4ccn5C)cc(C(N)=O)n3)c2c1` [Example 87, 2-[2-(5-methoxy-1H-indol-3-yl)ethylamino]-6-[(1-methylindol-4-yl)amino]pyrimidine-4-carboxamide] was tested, and the EC50 was < 100 nM.
`Cc1cc2cc(Nc3ccnc(NCCc4c[nH]c5ccc(OC(C)C)cc45)n3)ccc2[nH]1` [Example 49, N^2-[2-(5-isopropoxy-1H-indol-3-yl)ethyl]-N^4-(2-methyl-1H-indol-5-yl)pyrimidine-2,4-diamine] showed an EC50 of 100 nM.
Compound `COc1ccc2[nH]cc(CCNc3nccc(Nc4ccc5[nH]ccc5c4)n3)c2c1` [Example 2, N^4-(1H-indol-5-yl)-N^2-[2-(5-methoxy-1H-indol-3-yl)ethyl]pyrimidine-2,4-diamine] has an EC50 of 140 nM.
With `CCOc1ccc2[nH]cc(CCNc3nccc(Nc4ccc5[nH]c(CO)cc5c4)n3)c2c1` [Example 72, [5-({2-[2-(5-ethoxy-1H-indol-3-yl)ethylamino]pyrimidin-4-yl}amino)-1H-indol-2-yl]methanol] the EC50 was < 100 nM.
`COc1ccc2[nH]cc(CCNc3nccc(Nc4ccc5cc[nH]c5c4)n3)c2c1` [Example 20, N^4-(1H-indol-6-yl)-N^2-[2-(5-methoxy-1H-indol-3-yl)ethyl]pyrimidine-2,4-diamine] was tested, and the EC50 was 140 nM.
For `COc1ccc2[nH]cc(CCNc3nccc(Nc4cccc5[nH]c(C)nc45)n3)c2c1` [Example 82, N^2-[2-(5-methoxy-1H-indol-3-yl)ethyl]-N^4-(2-methyl-1H-benzimidazol-4-yl)pyrimidine-2,4-diamine], the EC50 was < 1000 nM.
In the case of `COc1ccc2[nH]cc(CCNc3nccc(Nc4ccc5c(c4)ncn5C)n3)c2c1` [Example 52, N^2-[2-(5-methoxy-1H-indol-3-yl)ethyl]-N^4-(1-methyl-1H-benzo[d]imidazol-5-yl)pyrimidine-2,4-diamine], the EC50 is reported as 430 nM.
With `COc1ccc2[nH]cc(CCNc3nc(Nc4ccc5[nH]c(C)cc5c4)cc(N4CCN(C)CC4)n3)c2c1` [Example 30, N^2-[2-(5-methoxy-1H-indol-3-yl)ethyl]-N^4-(2-methyl-1H-indol-5-yl)-6-(4-methylpiperazin-1-yl)pyrimidine-2,4-diamine] the EC50 was 3000 nM.
Compound `COc1ccc2[nH]cc(CCNc3nccc(N(C)c4ccc5c(c4)cc(C)n5C)n3)c2c1` [Example 62, N^4-(1,2-dimethyl-1H-indol-5-yl)-N^2-[2-(5-methoxy-1H-indol-3-yl)ethyl]-N^4-methylpyrimidine-2,4-diamine] has an EC50 of 1000 to 10000 nM.
`Cc1cc2cc(Nc3ccnc(NCCc4c[nH]c5ccc(O)cc45)n3)ccc2[nH]1` [Example 8, 3-{2-[4-(2-methyl-1H-indol-5-ylamino)pyrimidin-2-ylamino]ethyl}-1H-indol-5-ol] gave an EC50 of 3100 nM.
In the case of `COc1cccc2[nH]cc(CCNc3nccc(Nc4ccc5[nH]c(C)cc5c4)n3)c12` [Example 47, N^2-[2-(4-methoxy-1H-indol-3-yl)ethyl]-N^4-(2-methyl-1H-indol-5-yl)pyrimidine-2,4-diamine], the EC50 is reported as 330 nM.
`CCOc1ccc2[nH]cc(CCNc3nc(C)cc(Nc4ccc5[nH]c(C)cc5c4)n3)c2c1` [Example 55, N^2-[2-(5-ethoxy-1H-indol-3-yl)ethyl]-6-methyl-N^4-(2-methyl-1H-indol-5-yl)pyrimidine-2,4-diamine] was tested, and the EC50 was 53 nM.
In the case of `CCOc1ccc2[nH]cc(CCNc3nccc(Nc4cccc5c4ccn5C)n3)c2c1` [Example 80, N^2-[2-(5-ethoxy-1H-indol-3-yl)ethyl]-N^4-(1-methylindol-4-yl)pyrimidine-2,4-diamine], the EC50 is reported as < 100 nM.
